According to PubChem BioAssay AID212 (DTP/NCI, 2004):
Where “and” joins values, the source holds several entries; their conditions need not be identical. Equal values may be shown once. Results filed as inconclusive are left out.

Tested on: BDF1 mice, colon carcinoma 38 sc, T/C %
Test: NCI In Vivo Anticancer Drug Screen. Data for tumor model Colon Carcinoma 38 (subcutaneous) in B6D2F1 (BDF1) mice
Conditions: endpoint: median tumor weight (est.), higher = larger tumour
Experimental: The antitumor activity of compounds was measured in mice bearing transplantable tumors. Survival or tumor size were measured and the results are expressed as the measurement made in the treated group (T) divided by the measurement made in the vehicle treated control group (C). The tumor model used in this assay is Colon Carcinoma 38 (subcutaneous) in B6D2F1 (BDF1) mice

## Cc1c(N)nc(C(CC(N)=O)NCC(N)C(N)=O)nc1C(=O)NC(C(=O)NC(C)C(O)C(C)C(=O)NC(C(=O)NCCc1nc(-c2nc(C(=O)NCCCNCCCc3ccccn3)cs2)cs1)C(C)O)C(OC1OC(CO)C(O)C(O)C1OC1OC(CO)C(O)C(OC(N)=O)C1O)c1cnc[nH]1 (stereo not drawn)
dose: 0.1 mg/kg/injection, schedule: Q07DX003 (ip), vehicle: saline
  T/C: 96 % of control
dose: 0.2 mg/kg/injection, schedule: Q07DX003 (ip), vehicle: saline
  T/C: 67 % of control
dose: 0.4 mg/kg/injection, schedule: Q07DX002 (ip), vehicle: water
  T/C: 81 % of control
dose: 0.4 mg/kg/injection, schedule: Q07DX003 (ip), vehicle: saline
  T/C: 72 % of control
dose: 0.8 mg/kg/injection, schedule: Q07DX002 (ip), vehicle: water
  T/C: 66 % of control
dose: 0.8 mg/kg/injection, schedule: Q07DX003 (ip), vehicle: saline
  T/C: 105 % of control
dose: 1.6 mg/kg/injection, schedule: Q07DX002 (ip), vehicle: water
  T/C: 75 % of control
dose: 1.6 mg/kg/injection, schedule: Q07DX003 (ip), vehicle: saline
  T/C: 71 % of control
dose: 3.2 mg/kg/injection, schedule: Q07DX002 (ip), vehicle: water
  T/C: 72 % of control
dose: 3.2 mg/kg/injection, schedule: Q07DX003 (ip), vehicle: saline
  T/C: 60 % of control
dose: 6.25 mg/kg/injection, schedule: Q07DX002 (ip), vehicle: saline
  T/C: 70 % of control
dose: 6.4 mg/kg/injection, schedule: Q07DX002 (ip), vehicle: water
  T/C: 41 % of control
dose: 12.8 mg/kg/injection, schedule: Q07DX002 (ip), vehicle: water
  T/C: 45 % of control
dose: 25.0 mg/kg/injection, schedule: Q07DX002 (ip), vehicle: saline
  T/C: 32 % of control and 33 % of control
dose: 100.0 mg/kg/injection, schedule: Q07DX002 (ip), vehicle: saline
  T/C: 29 % of control

## COc1cccc2c1C(=O)c1c(O)c3c(c(O)c1C2=O)C[C@@](O)(C(=O)CO)C[C@@H]3OC1CC(OC(C)=O)C(OC(C)=O)C(C)O1 (stereo partly drawn)
dose: 3.12 mg/kg/injection, schedule: Q07DX002 (ip), vehicle: distilled water + Tween-80
  T/C: 89 % of control
dose: 6.25 mg/kg/injection, schedule: Q07DX002 (ip), vehicle: distilled water + Tween-80
  T/C: 88 % of control
dose: 12.5 mg/kg/injection, schedule: Q07DX002 (ip), vehicle: distilled water + Tween-80
  T/C: 65 % of control
dose: 25.0 mg/kg/injection, schedule: Q07DX002 (ip), vehicle: distilled water + Tween-80
  T/C: 90 % of control
dose: 50.0 mg/kg/injection, schedule: Q07DX002 (ip), vehicle: distilled water + Tween-80
  T/C: 62 % of control

## NC(Cc1ccc(N(CCCl)CCCl)cc1)C(=O)O (stereo not drawn)
dose: 1.0 mg/kg/injection, schedule: Q07DX002 (ip), vehicle: Klucel (hydroxypropylcellulose) (HPC)
  T/C: 71 % of control
dose: 1.0 mg/kg/injection, schedule: Q07DX002 (ip), vehicle: water
  T/C: 84 % of control
dose: 2.0 mg/kg/injection, schedule: Q07DX002 (ip), vehicle: water
  T/C: 97 % of control
dose: 4.0 mg/kg/injection, schedule: Q07DX002 (ip), vehicle: water
  T/C: 59 % of control
dose: 8.0 mg/kg/injection, schedule: Q07DX002 (ip), vehicle: Klucel (hydroxypropylcellulose) (HPC)
  T/C: 47 % of control and 51 % of control and 53 % of control
dose: 8.0 mg/kg/injection, schedule: Q07DX002 (ip), vehicle: water
  T/C: 37 % of control
dose: 16.0 mg/kg/injection, schedule: Q07DX002 (ip), vehicle: Klucel (hydroxypropylcellulose) (HPC)
  T/C: 9 % of control and 14 % of control

## CC1OC(=O)C(C(C)C)NC(=O)C(C(C)C)OC(=O)C(C(C)C)NC(=O)C(C)OC(=O)C(C(C)C)NC(=O)C(C(C)C)OC(=O)C(C(C)C)NC(=O)C(C)OC(=O)C(C(C)C)NC(=O)C(C(C)C)OC(=O)C(C(C)C)NC1=O (stereo not drawn)
dose: 2.5 mg/kg/injection, schedule: Q07DX003 (ip), vehicle: saline with Tween-80
  T/C: 71 % of control and 90 % of control
dose: 5.0 mg/kg/injection, schedule: Q07DX003 (ip), vehicle: saline with Tween-80
  T/C: 79 % of control
dose: 40.0 mg/kg/injection, schedule: Q07DX003 (ip), vehicle: saline with Tween-80
  T/C: 37 % of control

## COc1ccc2[nH]c3c(c2c1)CCNC3CC(C)CCC=C(C)C (stereo not drawn)
dose: 12.5 mg/kg/injection, schedule: Q07DX002 (ip), vehicle: Klucel (hydroxypropylcellulose) (HPC)
  T/C: 88 % of control and 97 % of control
dose: 25.0 mg/kg/injection, schedule: Q07DX002 (ip), vehicle: Klucel (hydroxypropylcellulose) (HPC)
  T/C: 82 % of control
dose: 50.0 mg/kg/injection, schedule: Q07DX002 (ip), vehicle: Klucel (hydroxypropylcellulose) (HPC)
  T/C: 57 % of control

## O=C1C=C[C@H](O)[C@@]2(CO)O[C@@H]12
dose: 0.62 mg/kg/injection, schedule: Q07DX002 (ip), vehicle: saline with Tween-80
  T/C: 104 % of control
dose: 1.25 mg/kg/injection, schedule: Q07DX002 (ip), vehicle: saline with Tween-80
  T/C: 116 % of control
dose: 2.5 mg/kg/injection, schedule: Q07DX002 (ip), vehicle: saline with Tween-80
  T/C: 69 % of control
dose: 5.0 mg/kg/injection, schedule: Q07DX002 (ip), vehicle: saline with Tween-80
  T/C: 79 % of control
dose: 10.0 mg/kg/injection, schedule: Q07DX002 (ip), vehicle: saline with Tween-80
  T/C: 97 % of control
